Laboratory results: patent publication US20080267882A1, “Imaging compounds, methods of making imaging compounds, methods of imaging, therapeutic compounds, methods of making therapeutic compounds, and methods of therapy” (Stanford University, priority 2007, published 2008)

Key:
[1] = literature; cited from earlier work
[2] = in vivo; conditions: female, athymic nude, mouse, total radioactivity
Description: All mice were sacrificed and dissected at 20 h post-injection (p.i.) of the tracer. Blood, U87MG tumor, major organs and tissues were collected and wet weighed. The radioactivity in the tissue was measured using a γ-counter (Packard). The results were presented as percentage injected dose per gram of tissue (% ID/g).

[3] = in vivo; conditions: female, athymic nude, mouse, iv, total radioactivity
Outline: (§1)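 microPET of U87MG-bearing mice after tail-vein injection of about 3.7 MBq ^18F-labelled RGD tracer under isoflurane; 30-min dynamic scan from 1 min p.i. plus 5-min static scans at 1–3 h. Tumour ROIs on decay-corrected coronal images, OSEM reconstruction without attenuation or scatter correction, converted to %ID/g.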

[4] = system: rat myocardial infarction; experiment: microPET imaging of rat myocardial infarction; assay type: in vivo; conditions: scan 1 h after injection
Text: Induction of MI was done as previously described by our laboratory. Adult female Sprague-Dawley rats (weight 150-200 g; Charles River Laboratories, Wilmington, Mass.) were used for this study. […] The anesthesia was then maintained with isoflurane (2%). MI was induced by ligation of the left anterior descending coronary artery 2 to 3 mm from the tip of the left auricle with a 7-0 polypropylene suture. […] In the sham operated animals, a suture was placed in the myocardium (without ligating the left coronary artery). Animals were anesthetized with isofluorane (2%) and injected with approximately 1 mCi (37 MBq) of ^64Cu-DOTA-[…]2) via the tail vein and allowed to recover. […] At the time of scanning, animals were anesthesized with isofluorane (2%) and prone positioned on the microPET Concorde R4 rodent model scanning gantry (Siemens A G, Malvern, Pa.). The scanner has a computer-controlled bed and 10.8-cm transaxial and 8-cm axial fields of view (FOV). […] It has no septa and operates exclusively in the 3-dimensional list mode. A 15 minute static acquisition was performed with the mid thorax in the center of the field of view (FOV), and images reconstructed using a filtered back projection algorithm.

[5] = in vivo; conditions: c-neu oncomouse (MMTV/c-neu transgenic), mouse, iv, total radioactivity
Description: All animal experiments were performed under a protocol approved by Stanford's Administrative Panel on Laboratory Animal Care. […] The c-neu oncomouse (Charles River Laboratories, Charles River, Canada) is a spontaneous tumor-bearing model that carries an activated c-neu oncogene driven by a mouse mammary tumor virus (MMTV) promoter (Cell 1988;54:105-115, which is incorporated herein by reference for the corresponding discussion). Transgenic mice uniformly expressing the MMTV/c-neu gene develop mammary adenocarcinomas between 4 and 8 months postpartum that involve the entire epithelium in each gland. […] Each mouse was tail-vein injected with about 3.7 MBq (100 μCi) of ^18[…]2 under isoflurane anesthesia. The 30-min dynamic scan (1×30 s, 4×1 min, 1×1.5 min, 4×2 min, 1×2.5 min, 4×3 min, total of 15 frames) was started 1 min after injection. Five min static PET images were also acquired at 1 h and 2 h post-injection (p.i.). The images were reconstructed by a 2-dimensional ordered-subsets expectation maximum (OSEM) algorithm and no correction was applied for attenuation or scatter. […] Animal procedures were performed according to a protocol approved by the Stanford University Institutional Animal Care and Use Committee. […] The c-neu oncomouse (Charles River Laboratories, Charles River, Canada) is a spontaneous tumor-bearing model that carries an activated c-neu oncogene driven by a mouse mammary tumor virus (MMTV) promoter (Cell. 1988;54:105-115, which is incorporated herein by reference for the corresponding discussion). Transgenic mice uniformly expressing the MMTV/c-neu gene develop mammary adenocarcinomas between 4 and 8 months postpartum that involve the entire epithelium in each gland. […] PET scans and image analysis were performed using a microPET R4 rodent model scanner (Siemens Medical Solutions) as previously reported. […] Five min static PET images were also acquired at 1, 2, and 3 h p.i. The images were reconstructed by 2-dimensional ordered-subsets expectation maximum (OSEM) algorithm. No attenuation or scatter correction was applied. […] The 5-min static PET scans was then acquired at 30 min and 1 h p.i. […] Animal procedures were performed according to a protocol approved by Stanford University Institutional Animal Care and Use Committee. […] Transgenic mice uniformly expressing the MMTV/c-neu gene develop mammary adenocarcinomas (4 to 8 months postpartum) that involve the entire epithelium in each gland. […] Five minute static scans were acquired at 30 min, 1 h, 2 h, 6 h, and 20 h p.i. […] The radioactivity concentration (accumulation) within a tumor was obtained from the maximum value within the multiple ROIs and then converted to % ID/g.

[6] = mouse, in vivo
Description: A U87MG tumor mouse was intravenously injected with 3.7 MBq of ^18F-FPRGD2. At 1 h after injection, the mouse was sacrificed, the blood, urine, liver, kidneys, and the U87MG tumor were collected and metabolite analysis was carried out as previously reported (J Nucl Med 2006;47: 113-121 and J Nucl Med 2006;47:1172-1180, each of which is incorporated herein by reference for the corresponding discussion). In brief, blood sample was immediately centrifuged for 5 min at 13,200 rpm. Other tissues were homogenized and then centrifuged for 5 min at 13,200 rpm. The supernatant was each passed through a C18 Sep-Pak cartridge. The urine sample was directly diluted with 1 mL of PBS and passed through a C18 Sep-Pak cartridge. The cartridges were each washed with 2 mL of water and eluted with 2 mL of ACN containing 0.1% TFA. The ACN eluent was concentrated and injected onto the analytical HPLC. The eluent was collected with a fraction collector (0.5 min/fraction) and the radioactivity of each fraction was measured with the γ-counter.
The metabolic stability of ^18F-FPTA-RGD2 was evaluated in an athymic nude mouse bearing a U87MG tumor. Sixty min after intravenous injection of 2 MBq of ^18F-FPTA-RGD2, the mouse was sacrificed and relevant organs were harvested. The blood was collected and immediately centrifuged for 5 min at 13,200 rpm. Liver, kidneys and tumor were homogenized and then centrifuged for 5 min at 13,200 rpm. After removal of the supernatants, the pellets were washed with 1 mL PBS. For each sample, supernatants of both centrifugation steps of blood, liver, and kidneys were combined and passed through C18 Sep-Pak cartridges. The urine sample was directly diluted with 1 mL of PBS and passed through a C18 Sep-Pak cartridge. The cartridges were each washed with 2 mL of water and eluted with 2 mL of ACN containing 0.1% TFA. After evaporation of the solvent, the residues were redissolved in 1 mL PBS and were injected onto the analytical HPLC. The eluent was collected with a fraction collector (0.5 min/fraction) and the radioactivity of each fraction was measured with the γ-counter.

[7] = system: U87MG tumor-bearing mice; experiment: in vivo; conditions: mouse
Outline: as §1

[8] = system: stroke rats (dMCAO); experiment: microPET imaging of dMCAO stroke rats; assay type: in vivo, rat
Text: Anesthesia for Sprague-Dawley rats (290-350 g) was induced by 5% isoflurane and maintained by 2-3% isoflurane. A ventral midline incision was made and the two CCAs were isolated. Snares were placed around the CCAs and the animal was placed on its right side. A 2 cm vertical scalp incision was made midway between the left eye and ear. The temporalis muscle was bisected and a 2 mm burr hole was made at the junction of the zygomatic arch and squamous bone. The distal MCA was exposed and ligated above the rhinal fissure with a 10-0 suture. The CCA snares were tightened to occlude the CCAs for 2 h. In the permanent MCA occlusion model, both CCAs were then released, while the distal MCA remained occluded.

| tissue uptake at 20 h [2] | tissue uptake at 2 h ([3]; 10 mg/kg, U87MG tumor uptake with blocking) | tissue uptake at 6 h ([3]; 9.3 MBq, U87MG tumor uptake) | tissue uptake at 20 h ([3]; 9.3 MBq, U87MG tumor uptake) | tissue uptake at 0.5 h ([3]; U87MG tumor uptake) | tissue uptake at 1 h ([3]; U87MG tumor uptake) | tissue uptake at 2 h ([3]; U87MG tumor uptake) | tissue uptake at 20 h ([5]; 9.3 MBq) | tissue uptake at 1 h [5] | defluoridation [6] | extraction efficiency (radioactivity in the supernatant) [6] | non-retained fraction (activity not trapped on C18 cartridges) [6] | residence time for kidneys [7] | Compound | log stability constant [1] | myocardial tracer uptake after MI induction [4] | microPET signal in wound and stroke lesion ([8]; day 1 after dMCAO) | microPET signal in wound and stroke lesion ([8]; day 9 after dMCAO) |
| --- | --- | --- | --- | --- | --- | --- | --- | --- | --- | --- | --- | --- | --- | --- | --- | --- | --- |
|  |  |  |  |  |  |  |  |  |  |  |  |  | O=C([O-])CN1CCN(CC(=O)[O-])CCN(CC(=O)[O-])CC1.[Ga+3] [Ga-NOTA] | 30.98 |  |  |  |
| 5 ± 0.7 %ID/g | 2.2 ± 0.1 %ID/g | 7.7 ± 1.6 %ID/g | 6.4 ± 0.7 %ID/g | 10.3 ± 1.6 %ID/g | 9.6 ± 1.4 %ID/g | 8.6 ± 1 %ID/g | 3.6 ± 0.4 %ID/g | 4.4 ± 0.9 %ID/g |  |  |  |  | N=C(N)NCCC[C@@H]1NC(=O)[C@H](CCCCNC(=O)CC[C@H](NC(=O)CC[C@H](NC(=O)CN2CCN(CC(=O)O)CCN(CC(=O)O)CCN(CC(=O)O)CC2)C(=O)N[C@@H](CCC(=O)NCCCC[C@@H]2NC(=O)[C@@H](Cc3ccc(O)cc3)NC(=O)[C@H](CC(=O)O)NC(=O)CNC(=O)[C@H](CCCNC(=N)N)NC2=O)C(=O)NCCCC[C@@H]2NC(=O)[C@@H](Cc3ccc(O)cc3)NC(=O)[C@H](CC(=O)O)NC(=O)CNC(=O)[C@H](CCCNC(=N)N)NC2=O)C(=O)NCCCC[C@@H]2NC(=O)[C@@H](Cc3ccc(O)cc3)NC(=O)[C@H](CC(=O)O)NC(=O)CNC(=O)[C@H](CCCNC(=N)N)NC2=O)NC(=O)[C@@H](Cc2ccc(O)cc2)NC(=O)[C@H](CC(=O)O)NC(=O)CNC1=O [^64Cu-DOTA-RGD tetramer, ^64Cu-DOTA-E{E[c(RGDyK)]2}2, metal not drawn] |  | occurs in areas supplied by the ligated coronary artery |  |  |
|  |  |  |  |  |  |  |  |  | No defluoridation was observed | 75-95% | less than 30% | 0.016 h | ^18F-FB-mini-PEG-E[c(RGDyK)]2 [^18F-FPRGD2] |  | significant increase in uptake | Both wound and the lesion were detectable at day 1 | the signal in the lesion reflecting angiogenesis is remained |
